Source: patent publication US20240228458A1, “PYRIMIDINE DERIVATIVE HAVING PROTEIN KINASE INHIBITORY ACTIVITY, AND THERAPEUTIC PHARMACEUTICAL COMPOSITION COMPRISING SAME” (THERAPEX CO., LTD., priority 2021, published 2024)

How the values were obtained:
Format in all cases: cell-based
[1] = test system: Ba/F3 cells expressing del19/T790M/C797S (EGFR-DTC); assay: Growth inhibition (GI50) of Ba/F3 cells expressing del19/T790M/C797S (EGFR-DTC), Celltiter glo; conditions: Mus musculus, BaF3, 72 h
Procedure, shortened: (§1)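 Viable-cell luminescence (CellTiter-Glo) after 72 h compound exposure at 37 °C, 5% CO2 gave GI50 (μM, 50% growth inhibition). Compounds were 4-fold serial dilutions, 10 points, from a 2 mM stock, 0.5% DMSO, added 4 h after plating EGFR-variant Ba/F3 cells at 100,000 cells/ml.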

[2] = test system: Ba/F3 cells expressing EGFR-wt; assay: Growth inhibition (GI50) of Ba/F3 cells expressing EGFR-wt, Celltiter glo; conditions: Mus musculus, BaF3, 72 h
Procedure, shortened: as §1

parental Ba/F3 cell line = assay: Growth inhibition (GI50) of the parental Ba/F3 cell line (not introduced with EGFR variants), Celltiter glo; conditions: Mus musculus, BaF3, 72 h, parental Ba/F3 cells
Procedure, shortened: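 Viable cell count by CellTiter-Glo after 72 h at 37 °C gave GI50 values (μM, 50% growth inhibition). Cells lacking EGFR variants were seeded at 100,000 cells/ml and dosed 4 h later with 4-fold serial dilutions from a 2 mM stock, 0.5% DMSO.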

[3] = test system: Ba/F3 cells expressing L858R/T790M/C797S (EGFR-LTC); assay: Growth inhibition (GI50) of Ba/F3 cells expressing L858R/T790M/C797S (EGFR-LTC), Celltiter glo; conditions: Mus musculus, BaF3, 72 h
Procedure, shortened: as §1

Row | Structure (SMILES) | GI50 [1] [nM] | GI50 [2] [nM] | GI50 (parental Ba/F3 cell line) [nM] | GI50 [3] [nM]
1 | COc1cc(N2CCC(N3CCN(C)CC3)CC2)c(Cl)cc1Nc1ncc(Br)c(Nc2cc(C)ccc2NS(C)(=O)=O)n1 [Example 107, N-(2-((5-bromo-2-((5-chloro-2-methoxy-4-(4-(4-methylpiperazin-1-yl)piperidin-1-yl)phenyl)amino)pyrimidin-4-yl)amino)-4-methylphenyl)methanesulfonamide] | 25 to 100 | 500 to 2000 | 500 to 2000 | 100 to 500
2 | COc1cc(N2CCC(N3CCN(C)CC3)CC2)c(F)cc1Nc1ncc(Br)c(Nc2cc(C)ccc2NS(C)(=O)=O)n1 [Example 108] | 25 to 100 | 500 to 2000 | 2000 to 10000 | 100 to 500
3 | Cc1ccc(NS(C)(=O)=O)c(Nc2nc(Nc3cc(C)c(N4CCC(N5CCN(C)CC5)CC4)cc3Cl)ncc2Br)c1 [Example 109, N-(2-((5-bromo-2-((2-chloro-5-methyl-4-(4-(4-methylpiperazin-1-yl)piperidin-1-yl)phenyl)amino)pyrimidin-4-yl)amino)-4-methylphenyl)methanesulfonamide] | 25 to 100 | 100 to 500 | 500 to 2000 | 1 to 25
4 | COc1cc(N2CCC(N3CCN(C)CC3)CC2)c(C)cc1Nc1ncc(Cl)c(N(c2ccc3scnc3c2NS(C)(=O)=O)S(C)(=O)=O)n1 [Example 110, N-(5-chloro-2-((2-methoxy-5-methyl-4-(4-(4-methylpiperazin-1-yl)piperidin-1-yl)phenyl)amino)pyrimidin-4-yl)-N-(4-(methylsulfonamido)benzo[d]thiazol-5-yl)methanesulfonamide] | 100 to 500 | 100 to 500 | 500 to 2000 | 25 to 100
5 | CN1CCN(C2CCN(c3ccc(Nc4ncc(Cl)c(N(c5ccc6scnc6c5NS(C)(=O)=O)S(C)(=O)=O)n4)cc3F)CC2)CC1 [Example 112, N-(5-chloro-2-((3-fluoro-4-(4-(4-methylpiperazin-1-yl)piperidin-1-yl)phenyl)amino)pyrimidin-4-yl)-N-(4-(methylsulfonamido)benzo[d]thiazol-5-yl)methanesulfonamide] | 25 to 100 | 100 to 500 | 100 to 500 | 25 to 100
6 | CN1CCN(C2CCN(c3ncc(Nc4ncc(Cl)c(N(c5ccc6scnc6c5NS(C)(=O)=O)S(C)(=O)=O)n4)cc3F)CC2)CC1 [Example 113, N-(5-chloro-2-((5-fluoro-6-(4-(4-methylpiperazin-1-yl)piperidin-1-yl)pyridin-3-yl)amino)pyrimidin-4-yl)-N-(4-(methylsulfonamido)benzo[d]thiazol-5-yl)methanesulfonamide] | 500 to 2000 | 2000 to 10000 | 2000 to 10000 | 500 to 2000
7 | COc1cc(N2CCC(N3CCN(C)CC3)CC2)c(Cl)cc1Nc1ncc(Cl)c(N(c2ccc3scnc3c2NS(C)(=O)=O)S(C)(=O)=O)n1 [Example 114, N-(5-chloro-2-((5-chloro-2-methoxy-4-(4-(4-methylpiperazin-1-yl)piperidin-1-yl)phenyl)amino)pyrimidin-4-yl)-N-(4-(methylsulfonamido)benzo[d]thiazol-5-yl)methanesulfonamide] | 100 to 500 | 500 to 2000 | 500 to 2000 | 100 to 500
8 | COc1nc(N2CCC(N3CCN(C)CC3)CC2)c(C)cc1Nc1ncc(Cl)c(Nc2ccc3ncccc3c2NS(C)(=O)=O)n1 [Example 116, N-(6-((5-chloro-2-((2-methoxy-5-methyl-6-(4-(4-methylpiperazin-1-yl)piperidin-1-yl)pyridin-3-yl)amino)pyrimidin-4-yl)amino)quinolin-5-yl)methanesulfonamide] | 25 to 100 | 500 to 2000 | 2000 to 10000 | 100 to 500
9 | COc1nc(N2CCC(N3CCOCC3)CC2)ccc1Nc1ncc(Cl)c(Nc2ccc3ncccc3c2NS(C)(=O)=O)n1 [Example 117, N-(6-((5-chloro-2-((2-methoxy-6-(4-morpholinopiperidin-1-yl)pyridin-3-yl)amino)pyrimidin-4-yl)amino)quinolin-5-yl)methanesulfonamide] | 500 to 2000 | 500 to 2000 | 2000 to 10000 | 500 to 2000
10 | COc1cc(N2CCC(N3CCN(C)CC3)CC2)c(Cl)cc1Nc1ncc(Cl)c(Nc2ccc3ncccc3c2NS(C)(=O)=O)n1 [Example 118] | 100 to 500 | 500 to 2000 | > 10000 | 100 to 500
11 | COc1cc(N2CCN(C)CC2)ccc1Nc1ncc(Cl)c(Nc2ccc3ncccc3c2NS(C)(=O)=O)n1 [Example 119, N-(6-((5-chloro-2-((2-methoxy-4-(4-methylpiperazin-1-yl)phenyl)amino)pyrimidin-4-yl)amino)quinolin-5-yl)methanesulfonamide] | 500 to 2000 | 500 to 2000 | 2000 to 10000 | 500 to 2000
12 | COc1cc(N2CCC(N3CCN(C)CC3)CC2)c(C)cc1Nc1ncc(Cl)c(N(C)c2ccccc2NS(C)(=O)=O)n1 [Example 120, N-(2-((5-chloro-2-((2-methoxy-5-methyl-4-(4-(4-methylpiperazin-1-yl)piperidin-1-yl)phenyl)amino)pyrimidin-4-yl)(methyl)amino)phenyl)methanesulfonamide] | 2000 to 10000 | 2000 to 10000 | > 10000 | 2000 to 10000
13 | COc1nc(N2CCC(N3CCN(C)CC3)CC2)c(C)cc1Nc1ncc(Cl)c(N(C)c2ccccc2NS(C)(=O)=O)n1 [Example 121, N-(2-((5-chloro-2-((2-methoxy-5-methyl-6-(4-(4-methylpiperazin-1-yl)piperidin-1-yl)pyridin-3-yl)amino)pyrimidin-4-yl)(methyl)amino)phenyl)methanesulfonamide] | 2000 to 10000 | 2000 to 10000 | > 10000 | 2000 to 10000
14 | COc1nc(N2CCC(N3CCN(C)CC3)CC2)c(C)cc1Nc1ncc(Cl)c(Nc2ccc3nccnc3c2P(C)(C)=O)n1 [Example 122, (6-((5-chloro-2-((2-methoxy-5-methyl-6-(4-(4-methylpiperazin-1-yl)piperidin-1-yl)pyridin-3-yl)amino)pyrimidin-4-yl)amino)quinoxalin-5-yl)dimethylphosphine oxide] | 100 to 500 | 100 to 500 | 500 to 2000 | 25 to 100
15 | COc1nc(N2CCC(N3CCN(C)CC3)CC2)ccc1Nc1ncc(Cl)c(Nc2ccc3nccnc3c2P(C)(C)=O)n1 [Example 123, (6-((5-chloro-2-((2-methoxy-6-(4-(4-methylpiperazin-1-yl)piperidin-1-yl)pyridin-3-yl)amino)pyrimidin-4-yl)amino)quinoxalin-5-yl)dimethylphosphine oxide] | 100 to 500 | 500 to 2000 | 2000 to 10000 | 100 to 500
16 | CN1CCN(C2CCN(c3ncc(Nc4ncc(Cl)c(Nc5ccc6nccnc6c5P(C)(C)=O)n4)cc3F)CC2)CC1 [Example 124, (6-((5-chloro-2-((5-fluoro-6-(4-(4-methylpiperazin-1-yl)piperidin-1-yl)pyridin-3-yl)amino)pyrimidin-4-yl)amino)quinoxalin-5-yl)dimethylphosphine oxide] | 25 to 100 | 100 to 500 | 100 to 500 | 25 to 100
17 | CN1CCN(C2CCN(c3ccc(Nc4ncc(Cl)c(Nc5ccc6nccnc6c5P(C)(C)=O)n4)cc3F)CC2)CC1 [Example 125, (6-((5-chloro-2-((3-fluoro-4-(4-(4-methylpiperazin-1-yl)piperidin-1-yl)phenyl)amino)pyrimidin-4-yl)amino)quinoxalin-5-yl)dimethylphosphine oxide] | 25 to 100 | 100 to 500 | 100 to 500 | 100 to 500
18 | COc1nc(N2C[C@@H](C)N(C)[C@@H](C)C2)ccc1Nc1ncc(Cl)c(Nc2ccc3nccnc3c2P(C)(C)=O)n1 [Example 126, (6-((5-chloro-2-((2-methoxy-6-((3S,5R)-3,4,5-trimethylpiperazin-1-yl)pyridin-3-yl)amino)pyrimidin-4-yl)amino)quinoxalin-5-yl)dimethylphosphine oxide] | 100 to 500 | 2000 to 10000 | 2000 to 10000 | 500 to 2000
19 | COc1nc(N2CCC(N(C)C)C2)ccc1Nc1ncc(Cl)c(Nc2ccc3nccnc3c2P(C)(C)=O)n1 (stereo not drawn) [Example 127, (6-((5-chloro-2-((6-(3-(dimethylamino)pyrrolidin-1-yl)-2-methoxypyridin-3-yl)amino)pyrimidin-4-yl)amino)quinoxalin-5-yl)dimethylphosphine oxide] | 2000 to 10000 | > 10000 | > 10000 | 2000 to 10000
20 | COc1nc(N2CCNCC2)ccc1Nc1ncc(Cl)c(Nc2ccc3nccnc3c2P(C)(C)=O)n1 [Example 128, (6-((5-chloro-2-((2-methoxy-6-(piperazin-1-yl)pyridin-3-yl)amino)pyrimidin-4-yl)amino)quinoxalin-5-yl)dimethylphosphine oxide] | 500 to 2000 | 2000 to 10000 | 2000 to 10000 | 500 to 2000
21 | COc1nc(N2CCS(=O)(=O)CC2)ccc1Nc1ncc(Cl)c(Nc2ccc3nccnc3c2P(C)(C)=O)n1 [Example 129, 4-(5-((5-chloro-4-((5-(dimethylphosphoryl)quinoxalin-6-yl)amino)pyrimidin-2-yl)amino)-6-methoxypyridin-2-yl)thiomorpholine 1,1-dioxide] | 2000 to 10000 | 2000 to 10000 | > 10000 | 2000 to 10000
